Series [1] deals with T1, Beta-secretase 1 (Homo sapiens, UniProt P56817). The series can be described thus: Inhibition of BACE1.
The target of series [2] is T1, Beta-secretase 1. Put plainly: Inhibition of soluble APPbeta N-terminal fragment production in HEK293T cells. The format is functional, cell-based, HEK-293T.
Series [3] is described as follows: Apparent permeability of the compound. Format: ADME. The conditions noted are these: not told.

The structures appear in SMILES notation.

T1 sequence (P56817 whole entry, the tested form may be a part): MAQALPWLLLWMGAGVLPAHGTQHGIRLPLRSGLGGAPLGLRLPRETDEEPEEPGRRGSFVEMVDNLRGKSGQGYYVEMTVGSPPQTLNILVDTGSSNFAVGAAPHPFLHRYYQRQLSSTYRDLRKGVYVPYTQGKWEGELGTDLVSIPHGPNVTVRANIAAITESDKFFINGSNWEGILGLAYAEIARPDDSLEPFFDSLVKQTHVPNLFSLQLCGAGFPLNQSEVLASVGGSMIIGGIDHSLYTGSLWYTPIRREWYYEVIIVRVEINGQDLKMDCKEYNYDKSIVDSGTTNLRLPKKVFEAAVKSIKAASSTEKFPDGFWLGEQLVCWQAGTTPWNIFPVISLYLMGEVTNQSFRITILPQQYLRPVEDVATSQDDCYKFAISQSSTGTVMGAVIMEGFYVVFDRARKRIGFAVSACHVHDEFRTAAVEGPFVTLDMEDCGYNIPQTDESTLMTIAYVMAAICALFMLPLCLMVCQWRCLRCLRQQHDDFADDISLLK

Regarding `CC(C)CNC(=O)CNC[C@H](Cc1ccccc1)NC(=O)c1cc(C(=O)N[C@H](C)c2ccc(F)cc2)cc(N(C)S(C)(=O)=O)c1`, the half-inhibitory concentration (IC50) came to 117 nM in series [1] and 3710 nM in series [2]. For `C[C@H](NC[C@H](Cc1ccccc1)NC(=O)c1cc(C(=O)N[C@H](C)c2ccc(F)cc2)cc(N(C)S(C)(=O)=O)c1)C(=O)N1CCC[C@H]1C(=O)O` the same measures were 17200 nM and greater than 20000 nM. For `CC(C)CNC(=O)[C@H](CCO)NC[C@H](Cc1ccccc1)NC(=O)c1cc(C(=O)N[C@H](C)c2ccc(F)cc2)cc(N(C)S(C)(=O)=O)c1` the same measures were 13 nM and 751 nM. For `CC[C@H](NC[C@H](Cc1ccccc1)NC(=O)c1cc(C(=O)N[C@H](C)c2ccc(F)cc2)cc(N(C)S(C)(=O)=O)c1)C(=O)NCC(C)C` the same measures were 7 nM and 20 nM. `C[C@@H](NC(=O)c1cc(C(=O)N[C@H](CO)Cc2ccccc2)cc(N(C)S(C)(=O)=O)c1)c1ccc(F)cc1` displayed an IC50 in series [1] of 630 nM.

Take `CCC[C@H](NC[C@H](Cc1ccccc1)NC(=O)c1cc(C(=O)N[C@H](C)c2ccc(F)cc2)cc(N(C)S(C)(=O)=O)c1)C(=O)NCC(C)C`: the results for the IC50 in series [1] and in series [2] were 4 nM and 17 nM, respectively. Consider `CC(C)CNC(=O)[C@H](C)NC[C@H](Cc1ccccc1)NC(=O)c1cc(CCC2C[C@@H]2C)cc(N(C)S(C)(=O)=O)c1` (stereo partly specified), for which the results for the half-inhibitory concentration (IC50) in series [1] and in series [2] were 20 nM and 23 nM, respectively. Further, the apparent permeability coefficient (Papp) in series [3] turned out to be 24 ×10⁻⁶ cm/s. In the case of `CCNC(=O)[C@H](C)NC[C@H](Cc1ccccc1)NC(=O)c1cc(C(=O)N[C@H](C)c2ccc(F)cc2)cc(N(C)S(C)(=O)=O)c1`, the half-maximal inhibitory concentration (IC50) in series [1] is 52 nM; in series [2] it was 242 nM. For `C[C@H](NC[C@H](Cc1ccccc1)NC(=O)c1cc(C(=O)N[C@H](C)c2ccc(F)cc2)cc(N(C)S(C)(=O)=O)c1)C(=O)NC1CC1` the same measures were 24 nM and 133 nM. On the same counts, the results for `C[C@H](NC[C@H](Cc1ccccc1)NC(=O)c1cc(C(=O)N[C@H](C)c2ccc(F)cc2)cc(N(C)S(C)(=O)=O)c1)C(=O)NCc1ccccc1` are 139 nM and 731 nM.

In the case of `C[C@@H](NC(=O)c1cc(C(=O)N[C@H](CN)Cc2ccccc2)cc(N(C)S(C)(=O)=O)c1)c1ccc(F)cc1`, it took 5900 nM to reach half-maximal inhibition in series [1] (IC50). Consider `CC(C)CNC(=O)[C@H](CCS(C)(=O)=O)NC[C@H](Cc1ccccc1)NC(=O)c1cc(C(=O)N[C@H](C)c2ccc(F)cc2)cc(N(C)S(C)(=O)=O)c1`, for which the values for the IC50 in series [1] and in series [2] were 13 nM and 17500 nM, respectively. For the compound `C[C@@H](NC(=O)c1cc(C(=O)N[C@@H](Cc2ccccc2)[C@H](O)CNC2CC2)cc(N(C)S(C)(=O)=O)c1)c1ccc(F)cc1`, the Papp in series [3] was determined as 0.6 ×10⁻⁶ cm/s. As for `CC(C)CNC(=O)[C@H](C)NC[C@H](Cc1ccccc1)NC(=O)c1cc(C(=O)N[C@H](C)c2ccc(F)cc2)cc(N(C)S(C)(=O)=O)c1`, 22 nM corresponded to half-maximal inhibition in series [2] (IC50). Besides, the Papp in series [3] stood at 10 ×10⁻⁶ cm/s.

For the origin of these results see ChEMBL document CHEMBL1138941, “BACE-1 inhibition by a series of psi[CH2NH] reduced amide isosteres” (Bioorg Med Chem Lett, 2006).
